Test [1] deals with Mus musculus. Description: Anxiolytic effect in Albino ICR mouse assessed as time spent on open arms of elevated plus-maze test at 15 mg/ kg, ip. Conditions: route intraperitoneal. Format: functional.
Test [2] has as its system Mus musculus. Description: Anxiolytic effect in Albino ICR mouse assessed as number of entries in open arms of elevated plus-maze test at 15 mg/kg, ip. Format: functional. Conditions: route intraperitoneal.

SMILES strings stand for the structures.

Turning to `CSc1ccc(CC2(O)c3ccccc3C3=NCCN32)cc1` (configuration not stated), the Activity is given as 47.8% with Mus musculus [1] and 36.3% with Mus musculus [2].

For `CSc1ccc(CC2(O)c3ccccc3C3=NCCCN32)cc1` (configuration not stated), the Activity is 73.8% in the test with Mus musculus [1] and 66% with Mus musculus [2].

As to `C[S+]([O-])c1ccc(CC2(O)c3ccccc3C3=NCCCN32)cc1` (configuration not stated), the values for the Activity with Mus musculus [1] and in the test with Mus musculus [2] were 16.3% and 27.6%, respectively.

In the case of `C[S+]([O-])c1ccc(CC2(O)c3ccccc3C3=NCCN32)cc1` (configuration not stated), the results for the Activity in the test with Mus musculus [1] and in the test with Mus musculus [2] were 44% and 25.3%, respectively.

`CS(=O)(=O)c1ccc(CC2(O)c3ccccc3C3=NCCN32)cc1` (configuration not stated): the Activity with Mus musculus [1] is recorded as 44%; in the test with Mus musculus [2], 27.3%.

In the case of `COc1ccc(CC2(O)c3ccccc3C3=NCCCCN32)cc1` (configuration not stated), the results for the Activity in the test on Mus musculus [1] and in the test on Mus musculus [2] were -9% and -24.4%, respectively.

As to `OC1(Cc2ccc(F)cc2)c2ccccc2C2=NCCN21` (configuration not stated), the Activity in the test with Mus musculus [1] came to 22.9%; with Mus musculus [2] it was 5.5%.

Regarding `OC1(Cc2ccc(F)cc2)c2ccccc2C2=NCCCN21` (configuration not stated), the Activity with Mus musculus [1] was found to be 44.7%; in the test on Mus musculus [2] it was 24.7%.

With `O=[N+]([O-])c1ccc(CC2(O)c3ccccc3C3=NCCCN32)cc1` (configuration not stated), the values for the Activity in the test on Mus musculus [1] and in the test with Mus musculus [2] were 59% and 44.2%, respectively.

For `OC1(Cc2ccc(Cl)cc2)c2ccccc2C2=NCCN21` (configuration not stated), the Activity in the test with Mus musculus [1] worked out at 62.6%; with Mus musculus [2] it was 41.9%.

Consider `OC1(Cc2ccc(Cl)cc2)c2ccccc2C2=NCCCN21` (configuration not stated), for which the Activity is given as 62.6% with Mus musculus [1] and 47.4% in the test on Mus musculus [2].

Regarding `OC1(Cc2ccc(F)cc2)c2ccccc2C2=NCCCCN21` (configuration not stated), the results for the Activity with Mus musculus [1] and in the test with Mus musculus [2] were 33.5% and 36.3%, respectively.

As for `OC1(Cc2ccc(Cl)cc2)c2ccccc2C2=NCCCCN21` (configuration not stated), the Activity is 42.7% in the test with Mus musculus [1] and 41% with Mus musculus [2].

For `CS(=O)(=O)c1ccc(CC2(O)c3ccccc3C3=NCCCN32)cc1` (configuration not stated), the Activity is 13.9% with Mus musculus [1] and -7.3% in the test with Mus musculus [2].

Turning to `O=[N+]([O-])c1ccc(CC2(O)c3ccccc3C3=NCCN32)cc1` (configuration not stated), the Activity with Mus musculus [1] was found to be 36.1%; in the test on Mus musculus [2] it was 33.1%.

As to `COc1cc(CC2(O)c3ccccc3C3=NCCCN32)cc(OC)c1OC` (configuration not stated), the Activity with Mus musculus [1] was 44.2%; in the test with Mus musculus [2] it was 46.8%.

Consider `OC1(Cc2ccc3c(c2)OCO3)c2ccccc2C2=NCCCN21` (configuration not stated), for which the Activity in the test on Mus musculus [1] came out at 48.7%; in the test with Mus musculus [2] it was 45.9%.

On to `COc1ccc(CC2(O)c3ccccc3C3=NCCN32)cc1` (configuration not stated), for which the Activity in the test on Mus musculus [1] turned out to be 48.9%; in the test on Mus musculus [2] it was 34.6%.

In the case of `OC1(Cc2ccc3c(c2)OCO3)c2ccccc2C2=NCCN21` (configuration not stated), the Activity in the test on Mus musculus [1] was determined as 51.3%; in the test on Mus musculus [2], 44.8%.

With `COc1ccc(CC2(O)c3ccccc3C3=NCCCN32)cc1` (configuration not stated), the Activity in the test with Mus musculus [1] came to 51.8%; in the test with Mus musculus [2] it was 60.2%.

Take `COc1cc(CC2(O)c3ccccc3C3=NCCN32)cc(OC)c1OC` (configuration not stated): the Activity with Mus musculus [1] is given as -7.9%; with Mus musculus [2], -16%.

Source of the values: ChEMBL document CHEMBL1139991, “[1,3]Diazaheterofused isoindolol derivatives displaying anxiolytic-like effects on mice” (2007).
